Entries after “also recorded” stand apart in the source; their conditions may differ. Each block holds one molecule with its values, some of them ahead of it.
How the values were obtained:
[1] = cited from earlier work
[2] = cited from earlier work; remark: listed apart in the source
[3] = Solubility of the product (qualitative); format: physicochemical
[4] = Aqueous solution: fluorescence and colour on addition of aqueous 1 mM ZnCl2; format: physicochemical; settings: for colour of the aqueous solution / fluorescence of the solution upon irradiation: upon addition of aqueous 1 mM ZnCl2; for fluorescence of the aqueous solution: without Zn
[5] = Fluorescent spectra in the presence of various Zn ion concentration (Zn-titration); format: physicochemical; settings: 0.1 M HEPES buffer pH 7.4
Description: (§1) Fluorescent spectra were recorded on an FLS920 Fluorescence Spectrometer from Edinburgh Instrument. A quartz cuvette with 3 mL volume and 1 cm length was used. Absorption spectra were recorded on a ThermoFisher NanoDrop 1000 Spectrophotometer. The two-photon measurements were performed on the custom Femtonics Dobos Dual system using a water immersion lens, a Mai Tai High-Power laser operated at 50 mW. For processing the images, ImageJ software was used.
FIG. 1. Fluorescence spectra of compound 28 pH 7.4 (0.1 M) HEPES buffer containing different amounts of Zn^2+. Values are not normalized, spectra were recorded at the maximum excitation wavelength.
FIG. 5. Fluorescence spectra of the compound of 29 in 0.1 M HEPES buffer (pH 7.4) containing different amounts of Zn^2+.
FIG. 7. Fluorescence spectra of the compound of 31 in pH 7.4 (0.1 M) HEPES buffer containing different amounts of Zn^2+.
FIG. 9. Fluorescence spectra of the compound of 30 in pH 7.4 (0.1 M) HEPES buffer containing different amounts of Zn^2+ ion.

[6] = UV-VIS absorption spectra; format: physicochemical
Description: as §1

[7] = Ion screening (fluorescence), Zn2+; format: physicochemical; settings: for selectivity towards Zn ion: vs Ca2+, Mg2+, Na+, K+, Fe3+, Cu2+, Sn2+, Cd2+, Pb2+
[8] = Ion screening (fluorescence), Cd2+; format: physicochemical
[9] = Ion screening (fluorescence), Sn2+; format: physicochemical
[10] = Ion screening (fluorescence), Ca2+; format: physicochemical

Structure (SMILES): Oc1cccc2cccnc12 [8-hydroxyquinoline]
- specificity / selectivity [1]: low

Structure (SMILES): Cc1cc(/C=N/c2cccc3cccnc23)c(O)c(CO)c1 [HQMP]
- solubility / water-solubility [2]: Poor water-solubility

Structure (SMILES): O=C(CNNC(=O)c1ccccc1)Nc1cccc2cccnc12 [QLNPY]
- quenching ([1]; by PPi and S^2−): quenched by PPi
- specificity / selectivity [1]: not selective for Cd^2+

Structure (SMILES): COc1cc(NS(=O)(=O)c2ccc(C)cc2)c2ncccc2c1 [TSQ, 6-methoxy-(8-p-toluenesulfonamido)quinoline]
- solubility / water-solubility [2]: poor water-

Structure (SMILES): CCOC(=O)COc1cc(NS(=O)(=O)c2ccc(C)cc2)c2nc(C)ccc2c1 [Zinquin Ester]
- solubility / water-solubility [2]: weak solubility; also recorded: excitation, poor water-solubility

- solubility in DMSO [3]: Soluble
- solubility in alcohols [3]: Soluble
- solubility in water [3]: moderately soluble
- maximum emitted wavelength [5]: around 545 nm
- UV spectra maximum wavelength [6]: around 472 nm
- Stokes shift ([6]; between UV maximum and emission maximum): 73 nm
Structure (SMILES): O=C1NC(Nc2ccccc2)=N/C1=C\c1ccc2cccc(O)c2n1 [compound 28, (Z)-5-((8-hydroxyquinolin-2-yl)methylene)-2-(phenylamino)-3,5-dihydro-4H-imidazol-4-one]
- colour of the aqueous solution [4]: colour changes to yellow
- fluorescence of the solution upon irradiation [4]: emits fluorescence
- fluorescence of the aqueous solution [4]: emits no fluorescence

- solubility in DMSO [3]: Soluble
- solubility in alcohols [3]: Soluble
- solubility in water [3]: Soluble
- UV spectra extends over [6]: over 500 nm
Structure (SMILES): CN(C)c1cccc2ccc(/C=C3\N=C(Nc4ccccc4)NC3=O)nc12 [compound 29, (Z)-5-((8-(dimethylamino)quinolin-2-yl)methylene)-2-(phenylamino)-3,5-dihydro-4H-imidazol-4-one]
- colour of the aqueous solution [4]: colour changes to greenish
- fluorescence of the solution upon irradiation [4]: emits fluorescence
- fluorescence of the aqueous solution [4]: emits no fluorescence
- Zn/Ca fluorescence ratio [7]: excellent
- fluorescence in ion screening [7]: strong green fluorescence
- selectivity towards Zn ion [7]: strong selectivity

- solubility in DMSO [3]: Soluble
- solubility in alcohols [3]: Soluble
- solubility in water [3]: moderately soluble
- maximum emitted wavelength [5]: around 555 nm
- UV spectra extends over [6]: over 500 nm
- UV spectra maximum wavelength [6]: around 476 nm
Structure (SMILES): CN(C)CCN(C)c1cccc2ccc(/C=C3\N=C(Nc4ccccc4)NC3=O)nc12 [compound 30, (Z)-5-((8-((2-(dimethylamino)ethyl)(methyl)amino)quinolin-2-yl)methylene)-2-(phenylamino)-3,5-dihydro-4H-imidazol-4-one]
- colour of the aqueous solution [4]: colour gets brighter
- fluorescence of the solution upon irradiation [4]: emits fluorescence
- fluorescence of the aqueous solution [4]: emits no fluorescence
- fluorescence in ion screening [7]: strong green fluorescence
- fluorescence intensity in ion screening [7]: lower intensity
- selectivity towards Zn ion [7]: strong selectivity

- solubility in DMSO [3]: Soluble
- solubility in alcohols [3]: Soluble
- solubility in water [3]: moderately soluble
- maximum emitted wavelength [5]: around 545 nm
- UV spectra extends over [6]: over 500 nm
- UV spectra maximum wavelength [6]: around 481 nm
Structure (SMILES): CN(Cc1ccccn1)c1cccc2ccc(/C=C3\N=C(Nc4ccccc4)NC3=O)nc12 [compound 31, (Z)-5-((8-(methyl(pyridin-2-ylmethyl)amino)quinolin-2-yl)methylene)-2-(phenylamino)-3,5-dihydro-4H-imidazol-4-one]
- selectivity against Cd2+ [8]: weak
- colour of the aqueous solution [4]: colour changes to yellow
- fluorescence of the solution upon irradiation [4]: emits fluorescence
- fluorescence of the aqueous solution [4]: emits no fluorescence
- Zn/Ca fluorescence ratio [7]: good
- fluorescence in ion screening [7]: strong green fluorescence
- selectivity towards Zn ion [7]: good selectivity

- solubility in DMSO [3]: Soluble
- solubility in alcohols [3]: Soluble
- solubility in water [3]: moderately soluble
Structure (SMILES): COc1cccc2ccc(/C=C3\N=C(Nc4ccccc4)NC3=O)nc12 [compound 32, (Z)-5-((8-methoxyquinolin-2-yl)methylene)-2-(phenylamino)-3,5-dihydro-4H-imidazol-4-onen]
- colour of the aqueous solution [4]: colour changes to green
- fluorescence of the solution upon irradiation [4]: emits fluorescence
- fluorescence of the aqueous solution [4]: emits no fluorescence

Structure (SMILES): O=C(O)CN(CC(=O)O)c1cccc2ccc(/C=C3\N=C(Nc4ccccc4)NC3=O)nc12 [compound 33, (Z)-2,2′-((2-((5-oxo-2-(phenylamino)-1,5-dihydro-4H-imidazol-4-ylidene)methyl)quinolin-8-yl)azanediyl)diacetic acid]
- turn on in the presence of Zn2+ [7]: does not turn on
- turn on by Sn2+ [9]: turn on the sensor
- fluorescence with Ca2+ ion [10]: increased fluorescence intensity

- solubility in DMSO [3]: soluble
- solubility in THF [3]: Moderately soluble
- solubility in the mixture of DMSO and water [3]: soluble
Structure (SMILES): O=C1NC(Nc2ccccc2)=N/C1=C\c1ccc2ccc3cccnc3c2n1 [compound 34, (Z)-5-((1,10-phenanthrolin-2-yl)methylene)-2-(phenylamino)-3,5-dihydro-4H-imidazol-4-one]

- solubility in DMSO [3]: soluble
- solubility in THF [3]: Moderately soluble
- solubility in the mixture of DMSO and water [3]: soluble
Structure (SMILES): O=C1N=C(Nc2ccccc2)N/C1=C\c1ccc2ccc3ccc(/C=C4\NC(Nc5ccccc5)=NC4=O)nc3c2n1 [compound 35, (5Z,5′Z)-5,5′-((1,10-phenanthroline-2,9-diyl)bis(methanylylidene))bis(2-(phenylamino)-1,5-dihydro-4H-imidazol-4-one)]

— US20240010913A1, “RED FLUORESCENT SENSOR COMPOUNDS FOR THE DETECTION OF METAL IONS” (FEMTONICS KFT., priority 2020, published 2024)
